Assay results as given in ChEMBL document CHEMBL1130146, “Fused pyrrolo[2,3-c]carbazol-6-ones: novel immunostimulants that enhance human interferon-gamma activity” (J Med Chem, 1997).

Legend:
THP-1 [1] = experiment: Compound (2 uM) was screened for potentiation of IFN-gamma (100 units/mL)-induced expression of HLA-DR in THP-1 cells; assay type: functional, Homo sapiens
THP-1 [2] = experiment: Compound (2 uM) was screened for potentiation of IFN-gamma (0 units/mL)-induced expression of HLA-DR in THP-1 cells; assay type: functional, Homo sapiens
THP-1 [3] = experiment: Compound (0 uM) was screened for potentiation of IFN-gamma (0 units/mL)-induced expression of HLA-DR in THP-1 cells; assay type: functional, Homo sapiens
Protein kinase C (PKC) = experiment: Inhibition of protein kinase C; assay type: protein assay, Rattus norvegicus
THP-1 [4] = experiment: Compound (0 uM) was screened for potentiation of IFN-gamma (100 units/mL)-induced expression of HLA-DR in THP-1 cells; assay type: functional, Homo sapiens

IC50 (Protein kinase C (PKC)) | Compound | Enhancement (THP-1 [1]) | Enhancement (THP-1 [2]) | Enhancement (THP-1 [3]) | Enhancement (THP-1 [4])
> 10 µM | O=C1Cc2c(c3c4ccccc4oc3c3[nH]c4ccccc4c23)N1 | 108% | 0% | 0% | 100%
> 10 µM | O=C1Cc2c(c3c4ccccc4[nH]c3c3[nH]c4ccccc4c23)N1 | 130% | 0% | 0% | 100%
> 10 µM | O=C1Cc2c(c3c4ccccc4sc3c3[nH]c4ccccc4c23)N1 | 153% | 0% | 0% | 100%
> 10 µM | O=C1Cc2c(c3c(c4[nH]c5ccccc5c24)Cc2ccccc2-3)N1 | 160% | 0% | 0% | 100%
